# Earlier results as cited in patent US9220759B2, “Treatment of diabetic patients with a drug eluting stent and adjunctive therapy” (Abbott Cardiovascular Systems Inc., priority 2012, dated 2015).
# System: restenosis after bare metal stent implantation
# Settings: diabetic patients prescribed the drug, compared to the control group, study of limited size
smiles,measurement,value
"CN(CCOc1ccc(CC2SC(=O)NC2=O)cc1)c1ccccn1 (stereo not shown) [rosiglitzone, rosiglitazone]",rate of restenosis,reduction in the rate of restenosis
